The subject of data set [1] is bone marrow-derived macrophages (BMDMs). In words: Real-time imaging of cell death (propidium iodide, INCUCYTE) in BMDMs. The note with it: for inhibition of cell death in response to TNF-α and IFN-γ treatment: wild-type BMDMs co-treated with 1 mM L-NAME or 100 μM 1400W; for induction of cell death in BMDMs: standard cytokine concentrations (25 ng/mL TNF-α, 50 ng/mL IFN-γ). The class given is cell-based, mouse.

For data set [2], the system named is colon cancer and melanoma cell lines. Put plainly: NO inhibition of TNF-α plus IFN-γ-induced cancer cell death. It is filed as cell-based, human. The settings on record: 1 mM L-NAME or 100 μM 1400W. On the procedure:
Cell Culture and Stimulation Methods. […] Cancer cells were seeded a day before stimulation. On the day of stimulation, the cells were washed once with warm and sterile DPBS, followed by treatment with different cytokines for 48 hours. The concentration of the cytokines used were 25 ng/mL of IL-6 (Peprotech), IL-8 (Peprotech), IL-18 (R&D), IL-15 (Peprotech), IL-1α (Peprotech), IL-1β (Peprotech), IL-2 (Peprotech), TNF-α (Peprotech), and IFN-γ (Peprotech). For the inhibition of nitric oxide (NO), cancer cells were co-treated with 1 mM of L-NAME hydrochloride (TOCRIS) or 100 μM of […] dihydrochloride (Enzo Life Sciences) along with the cytokines. For inhibition of the JAK signaling pathway, the cancer cells were co-treated with 5 μM of baricitinib (Achemblock) all through the experiment. Cell Death Analysis. The kinetics of cell death were measured using a two-color INCUCYTE® S3 imaging system (Essen Biosciences). […] A series of images were acquired at 1-hour time intervals for up to 48 hours post-treatment with a 20× objective and analyzed using the INCUCYTE® S3 software, which allows precise analysis of the number of dye-positive dead cells present in each image. […]

Another data set has as its system BMDMs. Put plainly: Immunoblot analysis of cell death effectors in BMDMs. The note with it: for cleavage of caspase-3, -7 and -8: single cytokines compared with the combination. The class given is cell-based, mouse. On the technique in general: In western blotting, separated proteins are transferred to a membrane and probed.
Data set [3] deals with HCT-116 colon cancer cells. In words: Western blot of PANoptosis markers in HCT-116. It is filed as cell-based, human. The method, then:
Western Blot Analysis. For the western blot analyses of caspases, cancer cells were seeded a day before stimulation at a density of 0.5×10^6 cells/well in 6-well cell culture plates. The proteins from the indicated cell types were collected by combining cell lysates with culture supernatants with caspase lysis buffer (with 1× protease inhibitors, 1× phosphatase inhibitors, 10% NP-40, and 25 mM DTT) and 4× sample loading buffer (containing SDS and 2-mercaptoethanol). For the western blot analysis of all other signaling proteins, the cells were lysed in RIPA buffer, supplemented with protease inhibitor and phosphoStop as per the manufacturer's instructions and sample loading buffer. […]

Another data set has as its system COLO-205 cell tumors. Put plainly: NSG mouse xenograft tumor model, intratumoral cytokines. The class given is in vivo, NSG mice. The note with it: intra-tumoral administration on day 12, 14 and 16 post-transplantation. The method, then: NSG Mouse Xenograft Tumor Model. The NSG mice (NOD/SCID-gamma null mouse strain that lacks […]) were used as the model recipients for the subcutaneous transplantation of human COLO-205 cancer cells. Briefly, 8- to 10-week-old NSG mice were shaved on their lower backs and transplanted with 2×10^6 COLO-205 cells in 200 μl of medium prepared by mixing (1:1) RPMI and a solubilized basement membrane preparation sold under the tradename MATRIGEL® (BD Bioscience). The mice were monitored regularly for engraftment and growth of COLO-205 cancer cell tumors. The recipient mice were divided into four groups and treated intratumorally with injection of the indicated cytokines or PBS (groups: (i) PBS, (ii) TNF-α, (iii) IFN-γ, or (iv) TNF-α(and IFN-γ) on day 12, 14 and 16 post-transplantation of the tumor cells. The tumor growth was monitored and measured using digital calipers, and the volume of the tumors were calculated using the formula: volume=(length×width^2)×½.

Data set [4] in a line: In vivo TNF-α and IFN-γ-induced inflammatory shock (mortality, serum chemistry, blood counts, flow cytometry, histopathology). Also on record: species or system mice. The note with it: i.p. 10 μg TNF-α, 20 μg IFN-γ, or both. The method, then:
In vivo TNF-α and IFN-γ-Induced Inflammatory Shock. Six- to eight-week-old mice of the indicated genotypes were injected intraperitoneally with 10 μg TNF-α alone, 20 μg IFN-γ alone, or TNF-α+IFN-γ diluted in endotoxin-free PBS. Animals were under permanent observation, and survival was assessed every 30 minutes. Blood was collected 5 hours after cytokine injection. Blood composition was analyzed using an automated hematology analyzer. Serum lactate dehydrogenase (LDH), alanine aminotransferase (ALT), aspartate aminotransferase (AST), blood urea nitrogen (BUN), and ferritin were analyzed by colorimetry using respective kits (LDH, ALT, AST, and BUN, all from HORIBA; and ferritin from Abcam) according to the manufacturer's instructions.
Flow Cytometry Methods. Peripheral blood was mixed with ACK lysis buffer for 3 minutes to lyse the red blood cells (RBCs). The cells were then stained with monoclonal antibodies for the following markers for flow cytometry: CD11b from eBioscience; F4/80, Ly6C, and Ly6G from BioLegend; and CD19, TCRb, and CD45.2 from Tonbo Biosciences. […]
Histopathology Methods. […] The number of cleaved caspase-3- and TUNEL-positive cells in five high power fields (20×) were counted per mouse.
On the technique in general: Flow cytometry measures light scatter and fluorescence of single cells or particles in a stream.

As for `CC(=N)NCc1cccc(CN)c1` [1400W, N-[[3-(aminomethyl)phenyl]methyl]-ethanimidamide], the “inhibition of cell death in response to TNF-α and IFN-γ treatment” value in data set [1] is recorded as “inhibited cell death”. Moreover, in data set [2], the “inhibition of cancer cell death induced by TNF-α plus IFN-γ treatment” value is “failed to inhibit”.
The corresponding values for `COC(=O)[C@@H](N)CCCNC(=N)N[N+](=O)[O-]` [L-NAME, N5-[imino(nitroamino)methyl]-L-ornithine methyl ester] are “inhibited cell death” and “failed to inhibit”.
Take `[NH-]c1c[n+](N2CCOCC2)no1` [SIN-1]: in data set [1] (wild-type BMDMs, increasing concentrations of SIN-1), the “kinetics of cell death induced by NO donor” value was “proportional to the NO concentration”.
Turning to “IFN-γ: recombinant IFN-γ protein (Peprotech)”, in the data set with BMDMs, the “cleavage of GSDMD and GSDME (combination: GSDME)” value was “did not induce robust cleavage”; the “phosphorylation of MLKL” value is listed as “failed to induce robust MLKL phosphorylation”; the “cleavage of caspase-3, -7 and -8” value was “reduced cleavage”. Moreover, the “activation of biochemical markers of PANoptosis in HCT-116” value in data set [3] is listed as “only weak activation”. In data set [1], the “induction of cell death in BMDMs” value was “failed to induce cell death”.
Take TNF-α: in the data set on BMDMs, the “cleavage of GSDMD and GSDME (combination: GSDME)” value was “did not induce robust cleavage”; the “phosphorylation of MLKL” value was “failed to induce robust MLKL phosphorylation”; the “cleavage of caspase-3, -7 and -8” value is recorded as “reduced cleavage”. In addition, the “activation of biochemical markers of PANoptosis in HCT-116” value in data set [3] is “only weak activation”. The tumor weight result in the data set with COLO-205 cell tumors is “minor but significant reduction”. In addition, the mortality in mice entry in data set [4] is reported as “did not cause significant mortality”. Further, the “induction of cell death in BMDMs” value in data set [1] was “failed to induce cell death”.

B1: IFN-γ: recombinant IFN-γ protein (Peprotech) (protein, UniProt P01579 24-161, looked up)
Interferon gamma: QDPYVKEAENLKKYFNAGHSDVADNGTLFLGILKNWKEESDRKIMQSQIVSFYFKLFKNFKDDQSIQKSVETIKEDMNVKFFNSNKKKRDDFEKLTNYSVTDLNVQRKAIHELIQVMAELSPAAKTGKRKRSQMLFRG
For the molecule B1, the mortality in mice entry in data set [4] was “did not cause significant mortality”.

Source of the values: US20240018230A1, “METHODS FOR TREATING OR MODULATING AN INFLAMMATORY RESPONSE” (St. Jude Children's Research Hospital, Inc., priority 2020, published 2024).
